Measured values: paper PMC7465886, “4-(N-Alkyl- and -Acyl-amino)-1,2,4-triazole-3-thione Analogs as Metallo-β-Lactamase Inhibitors: Impact of 4-Linker on Potency and Spectrum of Inhibition” (Biomolecules, 2020)

What was measured:
[1] = biological target: T1, VIM-2 (Escherichia coli, UniProt Q5U7L7); experiment: MBL inhibition, reporter substrate method, VIM-2; assay type: biochemical; conditions: hydrazine and hydrazide series; read-out: Ki Value VIM-2
T1 construct: made in house; host or cells: E. coli BL21(DE3) derivative, pET-9a
Protocol: (§1) Compounds were prepared in DMSO at a final concentration of 50 mM prior to dilution in the assay buffer. The reaction rate was measured as the variation of absorbance observed upon substrate hydrolysis in a UV-Vis spectrophotometer or microplate reader at a wavelength of 300 nm (imipenem, meropenem), 260 nm (cefotaxime), or 482 nm (nitrocefin) and in the presence of a purified MBL enzyme (such as VIM-1, VIM-2, VIM-4, NDM-1, and IMP-1, at a final concentration ranging from 1 to 70 nM).
(§2) These enzymes were overproduced in derivatives of E. coli BL21(DE3) carrying a pET-9 a (IMP-1, VIM-1, VIM-2, and VIM-4) or pET-15 b (NDM-1) vector into which the metallo-β-lactamase-encoding open reading frame was cloned. Bacterial strains were grown in the auto-inducing medium, ZYP-5052, supplemented with 50 μg/mL kanamycin for 24 h at 37 °C [38]. IMP-1, VIM-1, VIM-2, and VIM-4 were purified by ion-exchange and gel filtration chromatography using an AKTA Purifier platform (GE Healthcare, Uppsala, Sweden) as previously described. NDM-1 (residues 37-270) was produced as an amino-terminal 6 xHis-tag fusion protein and was purified using affinity chromatography. After growth for 26 h at 25 °C, bacterial cells were harvested by centrifugation (10,000× g, 30 min, 4 °C), resuspended in 10 mM HEPES buffer (pH 7.5) containing 0.15 M NaCl (buffer A) in one-fifth of the original culture volume, and lysed by sonication. Cellular debris was removed by centrifugation (12,000× g, 40 min, 4 °C). The clarified sample was loaded on a HisTrap HP column (bed volume, 5 mL; GE Healthcare), followed by a wash step (25 mL) with buffer A containing 20 mM imidazole. Proteins were eluted using buffer A containing 350 mM imidazole. The resulting protein sample was desalted (HiPrep 26/10 Desalting column, GE Healthcare) using 20 mM triethanolamine (pH 7.2) supplemented with 50 μM ZnSO4 and concentrated using an Amicon Ultra-15 (MW cut-off, 10 kDa; Millipore, Burlington, MA, USA). The concentrated sample was loaded on a Superdex 75 prep grade column (XK16/100 column; bed volume, 140 mL; GE Healthcare) and the proteins eluted with buffer A containing 50 μM ZnSO4. The active fractions were pooled and stored at −20 °C. The purity of the protein preparations was estimated >95% by SDS-PAGE analysis. The authenticity of the enzyme preparations was confirmed by electron spray ionization mass spectrometry, as previously described.
(§3) The inhibition constants (Ki) were determined on the basis of a model of competitive inhibition by analyzing the dependence of the ratio v0/vi (v0, hydrolysis velocity in the absence of inhibitor; vi, hydrolysis velocity in the presence of inhibitor) as a function of [I] as already described. The slope of the plot of v0/vi vs. [I], which corresponds to Km^S/(Km^S + [S])Ki (where Km^S is the Km value of the reporter substrate and [S] its concentration in the reaction mixture) and allowed the calculation of the Ki value. Alternatively, a Dixon plot analysis was carried out by measuring the initial hydrolysis rates in the presence of variable concentrations of inhibitor and substrate. This allowed Ki values to be determined and supported the hypothesis that the various compounds behaved as competitive inhibitors of the various tested enzymes. The assays were performed in triplicate.

[2] = biological target: T2, VIM-1 (Pseudomonas aeruginosa, UniProt A0A0F7KYQ8); experiment: MBL inhibition, reporter substrate method, VIM-1; assay type: biochemical; conditions: read-out: Inhibition of VIM-1 (dash)
T2 construct: made in house; host or cells: E. coli BL21(DE3) derivative, pET-9a
Protocol: as §1, §2, §3

[3] = system: E. coli LZ2310(pLBII-VIM-2); experiment: microbe, parasite or virus in culture; assay type: cell-based, Escherichia coli
Protocol: The potential activity of selected compounds was assessed by the agar disk-diffusion method, according to the CLSI (Clinical Laboratory Standard Institute) recommendations, using Mueller–Hinton medium. The inhibitor (dissolved in DMSO) was added (maximum volume of 15 μL) to a commercially available disk containing a defined amount of a β-lactam antibiotic (30 μg of cefoxitin (Oxoid, Milan, Italy)). After incubation (18 h at 35 °C), the diameter of the growth inhibition zone was measured and compared to that obtained in the absence of inhibitor. DMSO and EDTA (220 μg) were used as negative and positive controls, respectively. Experiments were performed in triplicate.
These tests were performed on an isogenic laboratory strain obtained after transforming Escherichia coli LZ2310 strain with a derivative of the high copy number plasmid pLB-II carrying the cloned blaVIM-2 gene harboring a cloned gene encoding the functional metallo-β-lactamase. Strain LZ2310 is a triple knockout mutant derived from K12 in which the genes encoding for components of the three major efflux pump systems were inactivated (genotype, ∆norE ∆mdfA N43 acrA1) and was used to generate an hyperpermeable background for MBL production and investigate the potential contribution of such mechanisms to inhibitor efflux.

[4] = biological target: T1, VIM-2; experiment: Isothermal titration calorimetry of binding to VIM-2
Protocol: ITC titrations were performed on a MicroCal ITC200 (GE-Malvern) equipped with a 200 µL Hastelloy sample cell and an automated 40 µL glass syringe rotating at 1000 rpm. VIM-2 in 10 mM Hepes-NaOH, 0.15 M NaCl, 50 µM ZnSO4, pH 7.5 was diluted to the desired concentration with the same buffer and was brought to a DMSO concentration identical to that of the injected compound. The tested compound was solubilized in DMSO at 20 mM concentration and was diluted to 200 µM with the enzyme buffer, resulting in a final DMSO concentration of 1%.
In a standard experiment, VIM-2 (19 µM) was titrated by one initiating injection (0.5 µL) followed by 19 injections (2 µL) of compound (200 µM) at an interval of 150 s. Dilution heat of compound injections into buffer, at the corresponding DMSO concentration, were subtracted from raw data. The data so obtained were fitted via nonlinear least squares minimization method to determine binding stoichiometry (n), association constant (Ka), and change in enthalpy of binding (∆H°b) using ORIGIN 7 software v.7 (OriginLab, Northampton, MA, USA). In the fitting procedure, the compound concentration was lowered in order to provide n around 1 and to take compound solubility into account under ITC conditions. The Gibbs free energy of binding, ∆G°b, was calculated from Ka (∆G°b = −RT ln Ka) and the entropic term, T∆S°b, was derived from the Gibbs–Helmholtz equation using the experimental ∆H°b value (∆G°b = ∆H°b − T∆S°b).

[5] = Escherichia coli, read-out: Inhibition Zone Diameter

O=C(O)c1ccccc1CNn1c(-c2ccccc2)n[nH]c1=S [Compound 1]
Ki [1]: 1.4 µM | inhibition at 100 µM [2]: < 30% | Restoration of cefoxitin activity (in words) ([3]; 30 μg cefoxitin disk, compound 1 at 48 μg, EUCAST clinical breakpoints): able to restore cefoxitin susceptibility | zone of inhibition at 16 µg/disc [3, 5]: 13 mm | zone of inhibition at 32 µg/disc [3, 5]: 16 mm | zone of inhibition at 48 µg/disc [3, 5]: 20 mm | Kd [4]: 0.358 µM | Ka ([4]; 25 °C): 2.8 ± 0.4 µM⁻¹ | n, stoichiometry of binding ([4]; 25 °C): 1.01 ± 0.01 | ∆H°b ([4]; 25 °C): -6.3 ± 0.1 kcal/mol | ∆G°b ([4]; 25 °C, calculated from Ka): -8.8 kcal/mol | T∆S°b ([4]; 25 °C, from Gibbs–Helmholtz equation): 2.5 kcal/mol
